Data: patent US20240199546A1, “INHIBITORS OF SOLUTE CARRIER FAMILY 6A MEMBER 19 (SLC6A19) AND METHODS OF USE THEREOF” (Maze Therapeutics, Inc., priority 2022, published 2024)

The molecules below were run against T1, human SLC6A19 and TMEM27 (Homo sapiens, UniProt Q695T7) (assay: Radiolabelled (3H) leucine uptake in CHO cells with doxycycline-inducible expression of human SLC6A19 and TMEM27 (Example B-1)). Details: CHO cells with doxycycline-inducible expression of human SLC6A19 and TMEM27, read-out: SLC6A19_Radioligand Uptake Assay IC50.
T1 construct: expressed in transfected cells
T1 sequence (Q695T7 1-634): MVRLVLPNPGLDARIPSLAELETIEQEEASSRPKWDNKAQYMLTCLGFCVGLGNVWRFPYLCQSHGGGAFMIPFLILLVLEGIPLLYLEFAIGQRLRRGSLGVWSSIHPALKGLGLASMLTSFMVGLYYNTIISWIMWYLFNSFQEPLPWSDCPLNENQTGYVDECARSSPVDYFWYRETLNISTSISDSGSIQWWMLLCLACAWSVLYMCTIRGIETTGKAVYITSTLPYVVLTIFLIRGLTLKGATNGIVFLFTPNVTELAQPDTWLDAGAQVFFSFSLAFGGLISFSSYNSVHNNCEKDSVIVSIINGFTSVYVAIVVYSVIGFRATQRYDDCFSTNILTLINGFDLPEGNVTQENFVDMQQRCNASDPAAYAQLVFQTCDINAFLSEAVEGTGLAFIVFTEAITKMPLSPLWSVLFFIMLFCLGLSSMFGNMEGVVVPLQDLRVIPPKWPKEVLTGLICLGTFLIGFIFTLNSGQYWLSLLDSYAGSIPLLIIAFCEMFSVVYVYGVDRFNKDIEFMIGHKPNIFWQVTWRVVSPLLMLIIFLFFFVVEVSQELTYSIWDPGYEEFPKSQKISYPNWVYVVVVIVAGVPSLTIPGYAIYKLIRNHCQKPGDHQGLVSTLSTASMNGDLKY
T1 sequence (Q9HBJ8 15-222 partner): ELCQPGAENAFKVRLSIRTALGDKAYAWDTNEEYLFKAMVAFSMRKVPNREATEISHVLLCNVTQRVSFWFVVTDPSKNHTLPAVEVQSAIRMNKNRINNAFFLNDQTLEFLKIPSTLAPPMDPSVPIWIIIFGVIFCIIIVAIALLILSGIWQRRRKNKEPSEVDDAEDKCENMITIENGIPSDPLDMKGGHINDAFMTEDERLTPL
Type: cell-based
In short: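 CHO cells were induced with doxycycline for 18 h at 37 °C, washed in HBSS, then exposed to compounds for 1 h: 8-point, 3-fold dilutions in duplicate, 0.5% DMSO final. Uptake measured by scintillation counting after 2 h shaking. Activity normalized with positive control as 0% and DMSO as 100%.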

| SMILES | IC50 |
| --- | --- |
| Cc1cc(COc2cc3[nH]c(CNC(=O)[C@@H]4CCC[C@@H]4O)cc3cc2Cl)on1 (racemic) [Compound 573, (1R,2S)-N-((5-chloro-6-((3-methylisoxazol-5-yl)methoxy)-1H-indol-2-yl)methyl)-2-hydroxycyclopentane-1-carboxamide and (1S,2R)-N-((5-chloro-6-((3-methylisoxazol-5-yl)methoxy)-1H-indol-2-yl)methyl)-2-hydroxycyclopentane-1-carboxamide] | 1390 nM |
| O=C(NCc1cc2cc(Cl)c(OCc3cscn3)cc2[nH]1)C1(C(F)F)CC1 [Compound 559, N-((5-chloro-6-(thiazol-4-ylmethoxy)-1H-indol-2-yl)methyl)-1-(difluoromethyl)cyclopropane-1-carboxamide] | 196 nM |
| C[C@@H]1CCN(C(=O)NCc2cc3cc(F)c(OCc4ccon4)cc3[nH]2)C1 [Compound 381, (R)-N-((5-fluoro-6-(isoxazol-3-ylmethoxy)-1H-indol-2-yl)methyl)-3-methylpyrrolidine-1-carboxamide] | 339 nM |
| CC1(C(=O)NCc2cc3cc(Cl)c(CNc4cccnc4)cc3[nH]2)CC1 [Compound 610, N-((5-chloro-6-((pyridin-3-ylamino)methyl)-1H-indol-2-yl)methyl)-1-methylcyclopropane-1-carboxamide] | 991 nM |
| CNCC(=O)NCc1cc2cc(Cl)c(OCc3cscn3)cc2[nH]1 [Compound 614, N-((5-chloro-6-(thiazol-4-ylmethoxy)-1H-indol-2-yl)methyl)-2-(methylamino)acetamide] | 3260 nM |
| CC(=O)NCc1cc2cc(F)c(OCc3ccon3)cc2[nH]1 [Compound 207, N-((5-fluoro-6-(isoxazol-3-ylmethoxy)-1H-indol-2-yl)methyl)acetamide] | 926 nM |
| O=C(NCc1cc2cc(F)c(CCc3cscn3)cc2[nH]1)N1CCC1 [Compound 600, N-((5-fluoro-6-(2-(thiazol-4-yl)ethyl)-1H-indol-2-yl)methyl)azetidine-1-carboxamide] | 145 nM |
| Cc1cc(COc2cc3[nH]c(CNC(=O)C(F)F)cc3cc2Cl)on1 [Compound 563, N-((5-chloro-6-((3-methylisoxazol-5-yl)methoxy)-1H-indol-2-yl)methyl)-2,2-difluoroacetamide] | 82.2 nM |
| CC(=O)NCc1cc2cc(Cl)c(OC[C@H]3CCCO3)cc2[nH]1 [Compound 465, (R)-N-((5-chloro-6-((tetrahydrofuran-2-yl)methoxy)-1H-indol-2-yl)methyl)acetamide] | 6210 nM |
| CN1CCC1C(=O)NCc1cc2cc(Cl)c(OCc3cscn3)cc2[nH]1 (racemic) [Compound 669, N-((5-chloro-6-(thiazol-4-ylmethoxy)-1H-indol-2-yl)methyl)-1-methylazetidine-2-carboxamide] | 3880 nM |
| Cc1cc(COc2cc3[nH]c(CNC(=O)C4(C)CC4)cc3cc2C(F)F)no1 [Compound 647, N-((5-(difluoromethyl)-6-((5-methylisoxazol-3-yl)methoxy)-1H-indol-2-yl)methyl)-1-methylcyclopropane-1-carboxamide] | 680 nM |
| Cc1cnc(COc2cc3[nH]c(CNC(=O)C4(C)CC4)cc3cc2F)o1 [Compound 73, N-((5-fluoro-6-((5-methyloxazol-2-yl)methoxy)-1H-indol-2-yl)methyl)-1-methylcyclopropane-1-carboxamide] | 1470 nM |
| C[C@H]1CCCN1C(=O)NCc1cc2cc(F)c(OCc3ccon3)cc2[nH]1 [Compound 384, (S)-N-((5-fluoro-6-(isoxazol-3-ylmethoxy)-1H-indol-2-yl)methyl)-2-methylpyrrolidine-1-carboxamide] | 1570 nM |
| C[C@@H]1CCCN1C(=O)NCc1cc2cc(F)c(OCc3ccon3)cc2[nH]1 [Compound 383, (R)-N-((5-fluoro-6-(isoxazol-3-ylmethoxy)-1H-indol-2-yl)methyl)-2-methylpyrrolidine-1-carboxamide] | 178 nM |
| C[C@H](O)C(=O)NCc1cc2cc(Cl)c(OCc3cscn3)cc2[nH]1 [Compound 285, (S)-N-((5-chloro-6-(thiazol-4-ylmethoxy)-1H-indol-2-yl)methyl)-2-hydroxypropanamide] | 322 nM |
| O=C(NCc1cc2cc(Cl)c(OCc3cscn3)cc2[nH]1)C1CCCC1 [Compound 489, N-((5-chloro-6-(thiazol-4-ylmethoxy)-1H-indol-2-yl)methyl)cyclopentanecarboxamide] | 325 nM |

| SMILES | IC50 |
| --- | --- |
| O=C(CC(F)F)NCc1cc2cc(Cl)c(OCc3cscn3)cc2[nH]1 [Compound 513, N-((5-chloro-6-(thiazol-4-ylmethoxy)-1H-indol-2-yl)methyl)-3,3-difluoropropanamide] | 86.2 nM |
| O=C(NCc1cc2cc(Cl)c(OCc3cscn3)cc2[nH]1)[C@H]1CCO1 [Compound 259, (R)-N-((5-chloro-6-(thiazol-4-ylmethoxy)-1H-indol-2-yl)methyl)oxetane-2-carboxamide] | 121 nM |
| CC1(C(=O)NCc2cc3cc(Cl)c(CCn4ccnc4)cc3[nH]2)CC1 [Compound 589, N-((6-(2-(1H-imidazol-1-yl)ethyl)-5-chloro-1H-indol-2-yl)methyl)-1-methylcyclopropane-1-carboxamide] | 4760 nM |
| CC1(C(=O)NCc2cc3cc(Cl)c(OCc4cscn4)cc3[nH]2)CCO1 (centres unmarked) [Compound 260, N-((5-chloro-6-(thiazol-4-ylmethoxy)-1H-indol-2-yl)methyl)-2-methyloxetane-2-carboxamide] | 2350 nM |
| Cc1cc(COc2cc3[nH]c(CNC(=O)N4CCC45COC5)cc3cc2Cl)on1 [Compound 378, N-((5-chloro-6-((3-methylisoxazol-5-yl)methoxy)-1H-indol-2-yl)methyl)-6-oxa-1-azaspiro[3.3]heptane-1-carboxamide] | 5510 nM |
| Cc1cc(COc2cc3[nH]c(CNC(=O)C(C)(C)C#N)cc3cc2Cl)on1 [Compound 485, N-((5-chloro-6-((3-methylisoxazol-5-yl)methoxy)-1H-indol-2-yl)methyl)-2-cyano-2-methylpropanamide] | 578 nM |
| Cc1cc(COc2cc3[nH]c(CNC(=O)[C@H]4CCCN4)cc3cc2Cl)on1 [Compound 618, (R)—N-((5-chloro-6-((3-methylisoxazol-5-yl)methoxy)-1H-indol-2-yl)methyl)pyrrolidine-2-carboxamide] | 7510 nM |
| O=C(NCc1cc2cc(Cl)c(OCc3cscn3)cc2[nH]1)C1CCO1 (centres unmarked) [Compound 269, N-((5-chloro-6-(thiazol-4-ylmethoxy)-1H-indol-2-yl)methyl)oxetane-2-carboxamide] | 66.6 nM |
| CC1(C(=O)NCc2cc3cc(Cl)c(OCC4COCCO4)cc3[nH]2)CC1 (racemic) [Compound 396, (S)-N-((6-((1,4-dioxan-2-yl)methoxy)-5-chloro-1H-indol-2-yl)methyl)-1-methylcyclopropane-1-carboxamide and (R)-N-((6-((1,4-dioxan-2-yl)methoxy)-5-chloro-1H-indol-2-yl)methyl)-1-methylcyclopropane-1-carboxamide] | 644 nM |
| CC(C)C(=O)NCc1cc2cc(F)c(OCc3ccon3)cc2[nH]1 [Compound 138, N-((5-fluoro-6-(isoxazol-3-ylmethoxy)-1H-indol-2-yl)methyl)isobutyramide] | 353 nM |
| Cc1cc(COc2cc(F)c3cc(CNC(=O)C4(C)CC4)[nH]c3c2)no1 [Compound 340, N-((4-fluoro-6-((5-methylisoxazol-3-yl)methoxy)-1H-indol-2-yl)methyl)-1-methylcyclopropane-1-carboxamide] | 277 nM |
| CC(=O)NCc1cc2cc(Cl)c(OC[C@H]3CCOC3)cc2[nH]1 [Compound 464, (S)-N-((5-chloro-6-((tetrahydrofuran-3-yl)methoxy)-1H-indol-2-yl)methyl)acetamide] | 1350 nM |
| Cc1cc(COc2cc3[nH]c(CNC(=O)[C@@H]4CCO4)cc3cc2Cl)on1 [Compound 276, (S)-N-((5-chloro-6-((3-methylisoxazol-5-yl)methoxy)-1H-indol-2-yl)methyl)oxetane-2-carboxamide] | 94 nM |
| CC1(C(=O)NCc2cc3c(F)c(F)c(OCc4cscn4)cc3[nH]2)CC1 [Compound 526, N-((4,5-difluoro-6-(thiazol-4-ylmethoxy)-1H-indol-2-yl)methyl)-1-methylcyclopropane-1-carboxamide] | 156 nM |
| CC(=O)NCc1cc2cc(Cl)c(OCCC3CCCO3)cc2[nH]1 (centres unmarked) [Compound 455, N-((5-chloro-6-(2-(tetrahydrofuran-2-yl)ethoxy)-1H-indol-2-yl)methyl)acetamide] | 3530 nM |
| Cc1cc(COc2cc3[nH]c(CNC(=O)[C@@H]4CC(F)(F)CN4C)cc3cc2Cl)on1 [Compound 668, (S)-N-((5-chloro-6-((3-methylisoxazol-5-yl)methoxy)-1H-indol-2-yl)methyl)-4,4-difluoro-1-methylpyrrolidine-2-carboxamide] | 1150 nM |
